Assays:
[1] = system: HCT-116; assay: Antitumor activity against human HCT116 cells xenografted in BALB/c mouse assessed as tumor growth inhibition at 3.75 mg/kg/day, iv administered on day 1, 5 and 9 relative to control; format: functional; settings: HCT-116, 24 h, read-out: TGI
[2] = system: Mus musculus; assay: Toxicity in BALB/c mouse assessed as mortality at 7.5 mg/kg/day, iv administered on day 1, 5 and 9; format: organism-based; parameters: route intravenous; settings: in vivo
[3] = system: Mus musculus; assay: Toxicity in BALB/c mouse assessed as mortality at 1.875 mg/kg/day, iv administered on day 1, 5 and 9; format: organism-based; parameters: route intravenous; settings: in vivo
[4] = system: Mus musculus; assay: Toxicity in BALB/c mouse assessed as mortality at 3.75 mg/kg/day, iv administered on day 1, 5 and 9; format: organism-based; parameters: route intravenous; settings: in vivo
[5] = system: Mus musculus; assay: Toxicity in BALB/c mouse assessed as mortality at 15 mg/kg/day, iv administered on day 1, 5 and 9; format: organism-based; parameters: route intravenous; settings: in vivo
[6] = system: HCT-116; assay: Antitumor activity against human HCT116 cells xenografted in BALB/c mouse assessed as tumor growth inhibition at 7.5 mg/kg/day, iv administered on day 1, 5 and 9 relative to control; format: functional; settings: HCT-116, 24 h, read-out: TGI
[7] = system: HCT-116; assay: Antitumor activity against human HCT116 cells xenografted in BALB/c mouse assessed as tumor growth inhibition at 15 mg/kg/day, iv administered on day 1, 5 and 9 relative to control; format: functional; settings: HCT-116, 24 h, read-out: TGI
[8] = system: Liver; assay: Metabolic stability in BALB/c mouse liver microsomes at 1 umol/l by LC-MS/MS analysis; format: ADME; settings: 1 µM
[9] = system: HCT-116; assay: Antitumor activity against human HCT116 cells xenografted in BALB/c mouse assessed as tumor growth inhibition at 1.875 mg/kg/day, iv administered on day 1, 5 and 9 relative to control; format: functional; settings: HCT-116, 24 h, read-out: TGI
[10] = system: HCT-116; assay: Cytotoxicity against human HCT116 cells after 96 hrs by microplate reader analysis; format: functional, cell-based; settings: HCT-116, 96 h
[11] = system: HT-29; assay: Cytotoxicity against human HT-29 cells after 96 hrs by microplate reader analysis; format: functional, cell-based; settings: HT-29, 96 h
[12] = system: A549; assay: Cytotoxicity against human A549 cells after 96 hrs by microplate reader analysis; format: functional, cell-based; settings: A549, 96 h
[13] = system: HCT-116; assay: Antitumor activity against human HCT116 cells xenografted in BALB/c mouse assessed as tumor growth inhibition at 1.5 mg/kg/day, iv administered on day 1, 5 and 9 relative to control; format: functional; settings: HCT-116, 24 h, read-out: TGI
[14] = system: Mus musculus; assay: Toxicity in BALB/c mouse assessed as mortality at 1.5 mg/kg/day, iv administered on day 1, 5 and 9; format: organism-based; parameters: route intravenous; settings: in vivo
[15] = system: HCT-116; assay: Antitumor activity against human HCT116 cells xenografted in BALB/c mouse assessed as tumor growth inhibition at 0.75 mg/kg/day, iv administered on day 1, 5 and 9 relative to control; format: functional; settings: HCT-116, 24 h, read-out: TGI
[16] = system: Mus musculus; assay: Toxicity in BALB/c mouse assessed as mortality at 0.75 mg/kg/day, iv administered on day 1, 5 and 9; format: organism-based; parameters: route intravenous; settings: in vivo

Compound	IC50 [10] [µM]	IC50 [11] [µM]	IC50 [12]	other results
COc1c(Cl)c2c(c(OC)c1OC)-c1ccc(OC)c(=O)cc1[C@@H](NC(C)=O)CC2	–	–	–	inhibition in vivo at 3.75 mg/kg/day [1]: 56.4%; Activity [2]: Non-toxic; Activity [3]: Non-toxic; Activity [4]: Non-toxic; Activity [5]: Non-toxic; inhibition in vivo at 7.5 mg/kg/day [6]: 62.6%; inhibition in vivo at 15 mg/kg/day [7]: 76.5%; Stability [8]: 28 µL/min/mg; inhibition in vivo at 1.875 mg/kg/day [9]: 36.7%
COc1c(Cl)c2c(c(OC)c1OC)-c1ccc(OC)c(=O)cc1[C@@H](N)CC2	0.207	0.225	0.241 µM	–
CCCC(=O)N[C@H]1CCc2c(Cl)c(OC)c(OC)c(OC)c2-c2ccc(OC)c(=O)cc21	0.0076	0.0083	0.0098 µM	–
COc1c(Cl)c2c(c(OC)c1OC)-c1ccc(OC)c(=O)cc1[C@@H](NC(=O)CC(C)C)CC2	0.0237	0.0161	0.0403 µM	–
CCCCCCC(=O)N[C@H]1CCc2c(Cl)c(OC)c(OC)c(OC)c2-c2ccc(OC)c(=O)cc21	0.0369	0.0383	0.0497 µM	–
COc1c(Cl)c2c(c(OC)c1OC)-c1ccc(OC)c(=O)cc1[C@@H](NC(=O)C1CCCCC1)CC2	0.0072	0.0071	0.0104 µM	–
COc1c(Cl)c2c(c(OC)c1OC)-c1ccc(OC)c(=O)cc1[C@@H](NC(=O)c1ccccc1)CC2	0.0014	0.0016	0.0047 µM	–
COc1c(Cl)c2c(c(OC)c1OC)-c1ccc(OC)c(=O)cc1[C@@H](NC(=O)c1ccccc1F)CC2	0.0016	0.0015	0.0017 µM	–
COc1c(Cl)c2c(c(OC)c1OC)-c1ccc(OC)c(=O)cc1[C@@H](NC(=O)c1cccc(F)c1)CC2	0.0016	0.0015	0.0035 µM	–
COc1c(Cl)c2c(c(OC)c1OC)-c1ccc(OC)c(=O)cc1[C@@H](NC(=O)c1ccc(F)cc1)CC2	0.0055	0.0022	0.0067 µM	–
COc1c(Cl)c2c(c(OC)c1OC)-c1ccc(OC)c(=O)cc1[C@@H](NC(=O)c1cc(F)c(F)c(F)c1)CC2	0.0072	0.0063	0.0066 µM	–
COc1ccccc1C(=O)N[C@H]1CCc2c(Cl)c(OC)c(OC)c(OC)c2-c2ccc(OC)c(=O)cc21	0.0264	0.0125	0.0132 µM	–
COc1cccc(C(=O)N[C@H]2CCc3c(Cl)c(OC)c(OC)c(OC)c3-c3ccc(OC)c(=O)cc32)c1	0.0016	0.0014	0.0027 µM	–
COc1ccc(C(=O)N[C@H]2CCc3c(Cl)c(OC)c(OC)c(OC)c3-c3ccc(OC)c(=O)cc32)cc1	0.008	0.008	0.0038 µM	–
COc1ccc(C(=O)N[C@H]2CCc3c(Cl)c(OC)c(OC)c(OC)c3-c3ccc(OC)c(=O)cc32)c(OC)c1	0.0573	0.0531	0.0854 µM	–
COc1cc(OC)cc(C(=O)N[C@H]2CCc3c(Cl)c(OC)c(OC)c(OC)c3-c3ccc(OC)c(=O)cc32)c1	0.0065	0.0079	0.0142 µM	–
COc1cc(C(=O)N[C@H]2CCc3c(Cl)c(OC)c(OC)c(OC)c3-c3ccc(OC)c(=O)cc32)cc(OC)c1OC	0.0517	0.0477	0.124 µM	–
COc1c(Cl)c2c(c(OC)c1OC)-c1ccc(OC)c(=O)cc1[C@@H](NC(=O)c1ccccc1C#N)CC2	0.104	0.0497	0.14 µM	–
COc1c(Cl)c2c(c(OC)c1OC)-c1ccc(OC)c(=O)cc1[C@@H](NC(=O)c1cccc(C#N)c1)CC2	0.0041	0.0016	0.0074 µM	–

Compound	IC50 [10] [µM]	IC50 [11] [µM]	IC50 [12]	other results
COc1c(Cl)c2c(c(OC)c1OC)-c1ccc(OC)c(=O)cc1[C@@H](NC(=O)c1ccc(C#N)cc1)CC2	0.0067	0.0067	0.0119 µM	–
COc1c(Cl)c2c(c(OC)c1OC)-c1ccc(OC)c(=O)cc1[C@@H](NC(=O)c1ccccc1[N+](=O)[O-])CC2	0.0302	0.0317	0.0566 µM	–
COc1c(Cl)c2c(c(OC)c1OC)-c1ccc(OC)c(=O)cc1[C@@H](NC(=O)c1cccc([N+](=O)[O-])c1)CC2	0.0008	0.0001	0.0017 µM	–
COc1c(Cl)c2c(c(OC)c1OC)-c1ccc(OC)c(=O)cc1[C@@H](NC(=O)c1ccc([N+](=O)[O-])cc1)CC2	0.0062	0.0069	0.0112 µM	–
COc1c(Cl)c2c(c(OC)c1OC)-c1ccc(OC)c(=O)cc1[C@@H](NC(=O)c1cc([N+](=O)[O-])cc([N+](=O)[O-])c1)CC2	0.0068	0.005	0.0312 µM	–
COc1c(Cl)c2c(c(OC)c1OC)-c1ccc(OC)c(=O)cc1[C@@H](NC(=O)c1ccccc1N(C)C)CC2	0.171	0.186	0.206 µM	–
COc1c(Cl)c2c(c(OC)c1OC)-c1ccc(OC)c(=O)cc1[C@@H](NC(=O)c1ccc(N(C)C)cc1)CC2	0.15	0.148	0.169 µM	–
COc1c(Cl)c2c(c(OC)c1OC)-c1ccc(OC)c(=O)cc1[C@@H](NC(=O)CN(C)C)CC2	0.067	0.046	0.16 µM	–
COc1c(Cl)c2c(c(OC)c1OC)-c1ccc(OC)c(=O)cc1[C@@H](NC(=O)CCN(C)C)CC2	0.539	0.354	0.96 µM	–
COc1c(Cl)c2c(c(OC)c1OC)-c1ccc(OC)c(=O)cc1[C@@H](NC(=O)CCC(=O)O)CC2	6.58	6.27	> 5 mg/L	–
COc1c(Cl)c2c(c(OC)c1OC)-c1ccc(OC)c(=O)cc1[C@@H](NC(=O)CCCC(=O)O)CC2	3.68	2.25	5.36 µM	–
COc1c(Cl)c2c(c(OC)c1OC)-c1ccc(OC)c(=O)cc1[C@@H](NC(=O)CS)CC2	0.192	0.209	0.4 µM	–
COc1c(Cl)c2c(c(OC)c1OC)-c1ccc(OC)c(=O)cc1[C@@H](NC(=O)[C@H](C)O)CC2	0.0079	0.0085	0.0187 µM	–
COc1c(Cl)c2c(c(OC)c1OC)-c1ccc(OC)c(=O)cc1[C@@H](NC(=O)[C@@H](C)O)CC2	0.0077	0.0072	0.0195 µM	–
CCC(O)(CC)C(=O)N[C@H]1CCc2c(Cl)c(OC)c(OC)c(OC)c2-c2ccc(OC)c(=O)cc21	0.0387	0.0365	0.038 µM	–
COc1c(Cl)c2c(c(OC)c1OC)-c1ccc(OC)c(=O)cc1[C@@H](NC(=O)CCO)CC2	0.0486	0.0461	0.23 µM	–
COc1c(Cl)c2c(c(OC)c1OC)-c1ccc(OC)c(=O)cc1[C@@H](NC(=O)CCCO)CC2	0.175	0.168	0.357 µM	–
COc1cc2c(c(OC)c1OC)-c1ccc(OC)c(=O)cc1[C@@H](NC(C)=O)CC2 [COLCHICINE]	–	–	–	inhibition in vivo at 1.5 mg/kg/day [13]: 92.6%; Activity [14]: Non-toxic; inhibition in vivo at 0.75 mg/kg/day [15]: 14%; Stability [8]: 1 µL/min/mg; Activity [16]: Non-toxic
